Literature values as cited in PubChem BioAssay AID1259410 (Chemical Carcinogenesis Research Information System (CCRIS), 2018).

System: rodent tumor promotion studies, tumor incidence
Experiment: CCRIS tumor promotion studies

SMILES: CCN(CC)CCCC(C)Nc1c2ccc(Cl)cc2nc2ccc(OC)cc12 (stereo unspecified)
- outcome (Carcinogen: N-NITROBIS(2-OXOPROPYL)AMINE, 60599-38-4, Doses [Carcinogen]: 10 MG/KG BW 1/WK FOR 3 WK, Doses [Promoter]: 0, 100 PPM IN DIET FOR 37 WK BEGINNING POST CARCINOGEN TREATMENT (STUDY DURATION: 40 WK), Route [Carcinogen]: SUBCUTANEOUS, Route [Promoter]: ORAL, Species: HAMSTER, Strain/Sex: SYRIAN/FEMALE): pancreas: adenocarcinoma; liver: hepatocellular adenoma or carcinoma
- outcome (Carcinogen: N-NITROBIS(2-OXOPROPYL)AMINE, 60599-38-4, Doses [Carcinogen]: 10 MG/KG BW 1/WK FOR 3 WK, Doses [Promoter]: 0, 300 PPM IN DIET FOR 37 WK BEGINNING POST CARCINOGEN TREATMENT (STUDY DURATION: 40 WK), Route [Carcinogen]: SUBCUTANEOUS, Route [Promoter]: ORAL, Species: HAMSTER, Strain/Sex: SYRIAN/FEMALE): liver: hepatocellular adenoma or carcinoma

SMILES: C[C@@]12C(=O)OC(=O)[C@]1(C)[C@H]1CC[C@@H]2O1
- outcome (Carcinogen: 7,12-DIMETHYLBENZ(A)ANTHRACENE, Doses [Carcinogen]: TOP, Route [Carcinogen]: DERMAL, Route [Promoter]: DERMAL, Species: MOUSE, Strain/Sex: FEMALE): integumentary system (skin)

SMILES: O=C1c2ccccc2C(=O)c2c(O)cccc21
- outcome (Carcinogen: METHYLAZOXYMETHANOL ACETATE, 592-62-1, Doses [Carcinogen]: 25 MG/KG BW 1/WK FOR 2 WK, Doses [Promoter]: 0, 1% IN DIET FOR 42 WK BEGINNING 1 WK POST CARCINOGEN TREATMENT (STUDY DURATION: 44 WK), Route [Carcinogen]: INTRAPERITONEAL, Route [Promoter]: ORAL, Species: RAT, Strain/Sex: ACI/FEMALE): intestine: adenoma
- outcome (Carcinogen: METHYLAZOXYMETHANOL ACETATE, 592-62-1, Doses [Carcinogen]: 25 MG/KG BW 1/WK FOR 2 WK, Doses [Promoter]: 0, 1% IN DIET FOR 42 WK BEGINNING 1 WK POST CARCINOGEN TREATMENT (STUDY DURATION: 44 WK), Route [Carcinogen]: INTRAPERITONEAL, Route [Promoter]: ORAL, Species: RAT, Strain/Sex: ACI/MALE): intestine: adenoma, adenocarcinoma

SMILES: CC(C(=O)O)c1ccc(-c2ccccc2)c(F)c1 (stereo unspecified)
- outcome (Carcinogen: N-METHYL-N'-NITRO-N-NITROSOGUANIDINE, 70-25-7, Doses [Carcinogen]: 10 MG ADMINISTERED AS 3 D TREATMENT CYCLES FOLLOWED BY REST PERIODS FOR A TOTAL OF 6 CYCLES (TOTAL DOSE 180 MG DURING 40, Doses [Promoter]: 0.5 MG ADMINISTERED AS 3 D TREATMENT CYCLES FOLLOWED BY REST PERIODS ADMINISTERED CONCURRENTLY WITH CARCINOGEN DURING 40, Route [Carcinogen]: INTRAGASTRIC, Route [Promoter]: GAVAGE, Species: RAT, Strain/Sex: WISTAR/FEMALE): stomach: adenocarcinoma; small intestine: adenocarcinoma
